Results reported in patent publication US8216800B2, “Substrates for detecting peptidase activity and methods using the substrates” (Biomerieux, priority 2007, dated 2012).

Tests used:
Test in all cases: Peptidase activity detection on Columbia agar containing substrate
Format in all cases: cell-based
[1] = test system: Staphylococcus epidermidis NCTC 11047; design: key: − = no fluorescence detected; e = trace of fluorescence; +/− = weak fluorescence; + = medium fluorescence; ++ = strong fluorescence; NG = No Growth; settings: substrate 100 mg/l, 24 hours at 37° C., UV 360-365 nm
Experimental: (§1) 40 mg of each substrate are dissolved in 4 ml of dimethylformamide (DMF). This solution is completely taken up in 400 ml of Columbia agar autoclaved beforehand and kept molten at 50° C. The final concentration for each substrate is therefore 100 mg/l. Each of the media is distributed into 90 mm Petri dishes in a proportion of 20 ml per dish.
(§2) 18 microorganism strains derived from collections and belonging to various species of bacteria and of yeasts are inoculated onto these media by semi-quantitative isolation of 10 μl of a suspension at 0.5 McFarland diluted to 1/20. The media are incubated for 24 hours at 37° C., and then the colonies formed are examined visually under UV illumination at 360-365 nm.

[2] = test system: Enterobacter cloacae NCTC 11936; design: key: − = no fluorescence detected; e = trace of fluorescence; +/− = weak fluorescence; + = medium fluorescence; ++ = strong fluorescence; NG = No Growth; settings: substrate 100 mg/l, 24 hours at 37° C., UV 360-365 nm
Experimental: as §1, §2

[3] = test system: Salmonella Typhimurium NCTC 74; design: key: − = no fluorescence detected; e = trace of fluorescence; +/− = weak fluorescence; + = medium fluorescence; ++ = strong fluorescence; NG = No Growth; settings: substrate 100 mg/l, 24 hours at 37° C., UV 360-365 nm
Experimental: as §1, §2

[4] = test system: Enterococcus faecium NCTC 11047; design: key: − = no fluorescence detected; e = trace of fluorescence; +/− = weak fluorescence; + = medium fluorescence; ++ = strong fluorescence; NG = No Growth; settings: Enterococcus faecium NCTC 11047 (Table 2); substrate 100 mg/l, 24 hours at 37° C., UV 360-365 nm
Experimental: as §1, §2

[5] = test system: Candida albicans ATCC 90028; design: key: − = no fluorescence detected; e = trace of fluorescence; +/− = weak fluorescence; + = medium fluorescence; ++ = strong fluorescence; NG = No Growth; settings: substrate 100 mg/l, 24 hours at 37° C., UV 360-365 nm
Experimental: as §1, §2

[6] = test system: Yersinia enterocolitica NCTC 11176; design: key: − = no fluorescence detected; e = trace of fluorescence; +/− = weak fluorescence; + = medium fluorescence; ++ = strong fluorescence; NG = No Growth; settings: substrate 100 mg/l, 24 hours at 37° C., UV 360-365 nm
Experimental: as §1, §2

[7] = test system: Listeria monocytogenes NCTC 11994; design: key: − = no fluorescence detected; e = trace of fluorescence; +/− = weak fluorescence; + = medium fluorescence; ++ = strong fluorescence; NG = No Growth; settings: substrate 100 mg/l, 24 hours at 37° C., UV 360-365 nm
Experimental: as §1, §2

[8] = test system: Staphylococcus aureus NCTC 11939; design: key: − = no fluorescence detected; e = trace of fluorescence; +/− = weak fluorescence; + = medium fluorescence; ++ = strong fluorescence; NG = No Growth; settings: Staphylococcus aureus (MRSA) NCTC 11939; substrate 100 mg/l, 24 hours at 37° C., UV 360-365 nm
Experimental: as §1, §2

[9] = test system: Bacillus subtilis NCTC 9372; design: key: − = no fluorescence detected; e = trace of fluorescence; +/− = weak fluorescence; + = medium fluorescence; ++ = strong fluorescence; NG = No Growth; settings: substrate 100 mg/l, 24 hours at 37° C., UV 360-365 nm
Experimental: as §1, §2

[10] = test system: Staphylococcus aureus NCTC 6571; design: key: − = no fluorescence detected; e = trace of fluorescence; +/− = weak fluorescence; + = medium fluorescence; ++ = strong fluorescence; NG = No Growth; settings: substrate 100 mg/l, 24 hours at 37° C., UV 360-365 nm
Experimental: as §1, §2

[11] = test system: Serratia marcescens NCTC 10211; design: key: − = no fluorescence detected; e = trace of fluorescence; +/− = weak fluorescence; + = medium fluorescence; ++ = strong fluorescence; NG = No Growth; settings: substrate 100 mg/l, 24 hours at 37° C., UV 360-365 nm
Experimental: as §1, §2

[12] = test system: Escherichia coli NCTC 10418; design: key: − = no fluorescence detected; e = trace of fluorescence; +/− = weak fluorescence; + = medium fluorescence; ++ = strong fluorescence; NG = No Growth; settings: substrate 100 mg/l, 24 hours at 37° C., UV 360-365 nm
Experimental: as §1, §2

[13] = test system: Providencia rettgeri NCTC 7475; design: key: − = no fluorescence detected; e = trace of fluorescence; +/− = weak fluorescence; + = medium fluorescence; ++ = strong fluorescence; NG = No Growth; settings: substrate 100 mg/l, 24 hours at 37° C., UV 360-365 nm
Experimental: as §1, §2

[14] = test system: Streptococcus pyogenes NCTC 8306; design: key: − = no fluorescence detected; e = trace of fluorescence; +/− = weak fluorescence; + = medium fluorescence; ++ = strong fluorescence; NG = No Growth; settings: substrate 100 mg/l, 24 hours at 37° C., UV 360-365 nm
Experimental: as §1, §2

[15] = test system: Enterococcus faecalis NCTC 775; design: key: − = no fluorescence detected; e = trace of fluorescence; +/− = weak fluorescence; + = medium fluorescence; ++ = strong fluorescence; NG = No Growth; settings: substrate 100 mg/l, 24 hours at 37° C., UV 360-365 nm
Experimental: as §1, §2

[16] = test system: Candida glabrata NCPF3943; design: key: − = no fluorescence detected; e = trace of fluorescence; +/− = weak fluorescence; + = medium fluorescence; ++ = strong fluorescence; NG = No Growth; settings: substrate 100 mg/l, 24 hours at 37° C., UV 360-365 nm
Experimental: as §1, §2

[17] = test system: Pseudomonas aeruginosa NCTC 10662; design: key to fluorescence intensity: − = no fluorescence detected; e = trace of fluorescence; +/− = weak fluorescence; + = medium fluorescence; ++ = strong fluorescence; NG = No Growth; settings: Pseudomonas aeruginosa NCTC 10662; substrate 100 mg/l, 24 hours at 37° C., UV 360-365 nm
Experimental: as §1, §2

[18] = test system: Burkholderia cepacia 1222; design: key to fluorescence intensity: − = no fluorescence detected; e = trace of fluorescence; +/− = weak fluorescence; + = medium fluorescence; ++ = strong fluorescence; NG = No Growth; settings: Burkholderia cepacia 1222; substrate 100 mg/l, 24 hours at 37° C., UV 360-365 nm
Experimental: as §1, §2

enterococcal strains = settings: the two enterococcal strains
Experimental: as §1, §2

[19] = test system: Gram-negative bacterial strains; settings: all the Gram-negative bacterial strains with the exception of the Burkholderia cepacia strain
Experimental: as §1, §2

[20] = test system: Staphylococcus aureus strains; settings: the two Staphylococcus aureus strains
Experimental: as §1, §2

[21] = test system: Enterococcus faecium NCTC 7171; design: key: − = no fluorescence detected; e = trace of fluorescence; +/− = weak fluorescence; + = medium fluorescence; ++ = strong fluorescence; NG = No Growth; settings: Enterococcus faecium NCTC 7171 (Table 3); substrate 100 mg/l, 24 hours at 37° C., UV 360-365 nm
Experimental: as §1, §2

[22] = test system: Morganella morganii 462403 (wild); design: key: − = no fluorescence detected; e = trace of fluorescence; +/− = weak fluorescence; + = medium fluorescence; ++ = strong fluorescence; NG = No Growth; settings: substrate 100 mg/l, 24 hours at 37° C., UV 360-365 nm
Experimental: as §1, §2

[23] = test system: Citrobacter freundii 46262 (wild); design: key: − = no fluorescence detected; e = trace of fluorescence; +/− = weak fluorescence; + = medium fluorescence; ++ = strong fluorescence; NG = No Growth; settings: substrate 100 mg/l, 24 hours at 37° C., UV 360-365 nm
Experimental: as §1, §2

[24] = test system: Gram-positive bacterial strains and the yeasts; settings: all the Gram-positive bacterial strains and the yeasts
Experimental: as §1, §2

Structure (SMILES)	fluorescence intensity [1]	fluorescence intensity [2]	fluorescence intensity [3]	fluorescence intensity [4]	fluorescence intensity [5]	fluorescence intensity [6]	fluorescence intensity [7]	fluorescence intensity [8]	fluorescence intensity [9]	fluorescence intensity [10]	fluorescence intensity [11]	fluorescence intensity [12]	fluorescence intensity [13]	fluorescence intensity [14]	fluorescence intensity [15]	fluorescence intensity [16]	fluorescence intensity [17]	fluorescence intensity [18]	further results
C[C@H](N)C(=O)Nc1ccccc1-c1nc2ccccc2o1 [Substrate 1]	−	++	++	+/−	−	++	+/−	+	−	+	++	++^1	++	−	+/−	−	++	−	fluorescence produced (enterococcal strains): weak blue fluorescence; fluorescence produced [19]: strong blue fluorescence; fluorescence produced [20]: medium green fluorescence
C[C@H](N)C(=O)Nc1cc2c(cc1-c1nc3ccccc3n1CCc1ccccc1)OCO2 [Substrate 16]	−	++	++		−	−	−	−	−	−	++	++	++	−	−	−	−	++	fluorescence intensity [21]: −; fluorescence intensity [22]: +; fluorescence intensity [23]: ++
C[C@H](N)C(=O)Nc1ccccc1-c1nc2ccccc2s1 [Substrate 17]	NG	+	NG	NG	NG	+	NG	NG	NG	NG	+	+	+	NG	NG	NG	+	+	toxicity (growth inhibition, text) [24]: inhibited
